We go through one compound from patent publication US20140155397A1, “EMT SIGNATURES AND PREDICTIVE MARKERS AND METHOD OF USING THE SAME” (Board of Regents, priority 2011, published 2014).

SMILES strings stand for the structures. Read-outs that look alike come from different tables or passages of the source.

In assay [1] the test system is NSCLC cell lines. Briefly: Drug sensitivity (growth inhibition, MTS assay) of epithelial versus mesenchymal NSCLC cell lines. Format: cell-based. An excerpt: (§1) Average values were used for analysis as described. […] Chou T. C., et al., Quantitative Analysis of Dose-Effect Relationships: The Combined Effects of Multiple Drugs or Enzyme Inhibitors. Adv Enzyme Regul.
The EMT signature was derived in 54 DNA fingerprinted NSCLC cell lines profiled on Affymetrix U133A, B, and Plus2.0 arrays and tested on the Illumina WGv2 and WGv3 platforms and in an independent set of head and neck cancer lines (HNC). E-cadherin and other protein levels were quantified by reverse phase protein array and correlated with the first principal component of the EMT signature. IC50s were determined for NSCLC cell lines by MTS assay. Response to erlotinib was evaluated in patients treated in the BATTLE clinical trial using eight-week disease […] and progression free survival.
On the technique in general: Formazan colour is commonly taken as a measure of viable cells.

Assay [2] deals with A549. The assay is described as follows: Proliferation, CellTiter-Glo Luminescent Cell Viability. It counts as cell-based. The following applies: single agent.
Excerpt: as §1
Background: In ATP-based viability assays light output follows the ATP content of the culture.

Assay [3] relates to Calu-1. Described as above. Format: cell-based. The following applies: single agent.
Excerpt: as §1

The test system of assay [4] is H157. Described as above. Format: cell-based. The following applies: single agent.
Excerpt: as §1

Assay [5] has as its system H1299. The description is as above. Format: cell-based. The following applies: single agent.
Excerpt: as §1

For assay [6], the system named is H2882. The description is as above. It counts as cell-based. The following applies: single agent.
Excerpt: as §1

Assay [7] deals with H460. The assay is described as above. The following applies: single agent. Format: cell-based.
Excerpt: as §1

The subject of assay [8] is Cells expressing high levels of Axl. Briefly: Proliferation of six mesenchymal cell lines expressing high levels of Axl (summary). It counts as cell-based. The following applies: single agent.
Excerpt: as §1

Assay [9] deals with T1, MER (Homo sapiens, UniProt Q12866).
T1 sequence (Q12866 21-999): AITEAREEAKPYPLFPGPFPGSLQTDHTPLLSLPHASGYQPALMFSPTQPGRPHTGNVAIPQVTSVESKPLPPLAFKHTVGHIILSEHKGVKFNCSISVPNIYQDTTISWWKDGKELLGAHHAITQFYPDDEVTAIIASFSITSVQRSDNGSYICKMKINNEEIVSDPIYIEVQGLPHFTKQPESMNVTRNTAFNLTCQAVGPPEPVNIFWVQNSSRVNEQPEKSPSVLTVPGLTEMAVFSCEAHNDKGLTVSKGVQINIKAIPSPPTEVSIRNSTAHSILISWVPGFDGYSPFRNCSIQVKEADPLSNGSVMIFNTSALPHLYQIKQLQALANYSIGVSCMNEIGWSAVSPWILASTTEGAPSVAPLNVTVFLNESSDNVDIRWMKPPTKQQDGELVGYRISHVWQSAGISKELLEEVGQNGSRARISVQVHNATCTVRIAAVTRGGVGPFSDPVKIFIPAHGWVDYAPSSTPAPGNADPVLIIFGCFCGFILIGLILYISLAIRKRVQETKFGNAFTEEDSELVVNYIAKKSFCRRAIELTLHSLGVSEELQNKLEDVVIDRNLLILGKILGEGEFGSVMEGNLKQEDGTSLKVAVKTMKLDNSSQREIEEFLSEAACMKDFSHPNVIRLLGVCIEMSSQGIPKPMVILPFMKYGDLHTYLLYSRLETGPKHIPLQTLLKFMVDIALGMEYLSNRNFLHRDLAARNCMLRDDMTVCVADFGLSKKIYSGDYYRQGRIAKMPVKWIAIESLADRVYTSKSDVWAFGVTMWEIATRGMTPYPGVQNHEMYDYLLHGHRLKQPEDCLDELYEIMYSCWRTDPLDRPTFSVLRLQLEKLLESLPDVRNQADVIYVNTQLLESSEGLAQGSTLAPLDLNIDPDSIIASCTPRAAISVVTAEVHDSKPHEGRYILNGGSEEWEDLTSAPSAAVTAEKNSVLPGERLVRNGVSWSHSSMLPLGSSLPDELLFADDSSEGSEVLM
The assay is described as follows: Protein kinase panel. It counts as biochemical. An excerpt: (§2) Purified recombinant AXL kinase was used to screen a library of structures with appropriate drug-like scaffolds to identify potential inhibitors. Hits from the screen were confirmed and r analyzed by selection criteria including Lipinski rules. One pyrrolopyrimidine-based compound was selected for structure-activity relationship efforts. Optimization of this scaffold and subsequent evaluation led to the generation of compound SG1-7079 as the lead candidate inhibitor (FIG. 10). […] SGI-7079 was screened against a panel of protein kinases to determine both selectivity and biochemical potency.

The target in assay [10] is T2, Flt3 (Homo sapiens, UniProt P36888).
T2 sequence (P36888 27-993): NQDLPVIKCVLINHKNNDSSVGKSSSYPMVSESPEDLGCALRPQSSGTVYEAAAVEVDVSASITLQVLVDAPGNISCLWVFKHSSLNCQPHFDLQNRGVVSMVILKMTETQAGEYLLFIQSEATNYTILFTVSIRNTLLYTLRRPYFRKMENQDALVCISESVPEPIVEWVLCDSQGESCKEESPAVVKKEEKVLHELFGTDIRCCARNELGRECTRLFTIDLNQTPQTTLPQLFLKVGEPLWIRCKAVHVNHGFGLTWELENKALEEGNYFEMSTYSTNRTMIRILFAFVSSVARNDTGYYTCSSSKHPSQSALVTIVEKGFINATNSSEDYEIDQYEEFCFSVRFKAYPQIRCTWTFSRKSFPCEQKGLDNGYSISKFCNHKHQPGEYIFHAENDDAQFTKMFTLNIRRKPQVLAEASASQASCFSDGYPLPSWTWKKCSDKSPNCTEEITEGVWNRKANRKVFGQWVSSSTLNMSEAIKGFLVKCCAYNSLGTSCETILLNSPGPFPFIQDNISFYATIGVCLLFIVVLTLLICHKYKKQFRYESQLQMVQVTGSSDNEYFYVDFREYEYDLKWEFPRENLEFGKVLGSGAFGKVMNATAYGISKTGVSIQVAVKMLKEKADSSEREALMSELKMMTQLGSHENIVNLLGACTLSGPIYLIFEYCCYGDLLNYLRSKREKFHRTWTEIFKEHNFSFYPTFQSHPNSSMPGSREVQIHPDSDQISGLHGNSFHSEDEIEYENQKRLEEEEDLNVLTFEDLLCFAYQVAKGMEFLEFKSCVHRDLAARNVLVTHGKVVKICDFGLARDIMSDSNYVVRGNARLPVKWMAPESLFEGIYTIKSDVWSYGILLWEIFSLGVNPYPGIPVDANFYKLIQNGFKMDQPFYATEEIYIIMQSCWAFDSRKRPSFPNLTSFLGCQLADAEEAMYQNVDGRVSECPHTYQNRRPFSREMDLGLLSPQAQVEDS
Briefly: Protein kinase panel. It counts as biochemical.
Excerpt: as §2

For the compound `Cc1c[nH]c2nc(Nc3ccc(N4CCN(C)CC4)c(F)c3)nc(-c3cccc(CC#N)c3)c12` [SGI-7079], the “Sensitivity of mesenchymal cells” value in [1] (SGI-7079 versus erlotinib, p<0.001 by Wilcoxon test) was “relatively sensitive”. Further, in assay [1] (p-value 0.17, not statistically significant), the “Fold more sensitive, mesenchymal versus epithelial cells” value is listed as 1.3 fold. Moreover, the 50% inhibitory concentration (IC50) (commonly the concentration at which inhibition is half-maximal) in assay [2] stood at 920 nM; in assay [3], 2440 nM; in assay [4] it was 740 nM; in assay [5], 1740 nM; in [6] it was 4.29 µM; in assay [7], 2010 nM. Moreover, the IC50 in assay [8] (read-out: IC50 range across cell lines) was 740 to 4290 nM; in assay [8] (read-out: Mean IC50 across cell lines), 1300 nM. In assay [9], the “Inhibition of MER” value is listed as “similarly as AXL”. Also, the “Inhibition of Flt3” value in [10] is recorded as “potent, low nM inhibition”.
